According to PubChem BioAssay AID1919004 (Molecular Pharmacology Branch, DTP, NCI, 2023):
“And” between values parts separate entries of the source, which are not always exact repeats. Equal values may be shown once. Each block holds one molecule with its values, some of them ahead of it.

Tested on: 883617-216-R-J1-PDC complex spheroids, growth, % test/control
Experiment: Anticancer human tumor 883617-216-R-J1-PDC patient-derived bladder carcinoma cell line growth inhibition [AhR]
Conditions: for viability, T/C: stronger effect = lower value
Excerpt: Multicellular complex tumor spheroid response to aryl hydrocarbon receptor antagonists in combination with a variety of drugs and investigational agents in selected tumor cell lines
The current study was undertaken to assess response to aryl hydrocarbon receptor antagonists in combination with standard-of-care drugs and investigational agents in solid tumor complex spheroid models. Complex spheroids include a stromal component modeled by human endothelial cells (HUVEC) and fibroblasts modeled by human mesenchymal stem cells (MSCs). The concentration ranges selected for each drug and investigational agent were based upon clinically achievable concentrations if the clinical Cmax of the agent was known.
Compounds. The drugs and investigational agents: BAY 2416964 (NSC825713), GNF351 (NSC835774), CH-223191 (NSC835775), CPI-455 (NSC825282), aza-TdCyd (NSC777586), decitabine (NSC127716), belinostat (NSC758774), entinostat (NSC756642), pevonedistat (NSC761192), tazemetostat (NSC777109), talazoparib (NSC765396), olaparib (NSC753686), selinexor (NSC780203), nedisertib (M3814, NSC802822), bortezomib (NSC756655), venetoclax (NSC766270), doxorubicin (NSC123127), elimusertib (BAY189344, NSC800525), ceralasertib (AZD6738, NSC777638), TAK-243 (NSC785004), alisertib (NSC759677), etoposide (NSC141540), topotecan (NSC609699), eribulin (NSC707389), gemcitabine (NSC613327), carboplatin (NSC241240), cisplatin (NSC119875), and SN-38 (NSC673596) were obtained from the National Cancer Institute (NCI) Developmental Therapeutics Program Chemical Repository (32). The FDA-approved anticancer drug set is available from the Developmental Therapeutics Program at https://dtp.cancer.gov/organization/dscb/obtaining/available plates.htm. […] The stock solutions were prepared in dimethyl sulfoxide (DMSO, Sigma-Aldrich, St. Louis, MO, cat. D2650), except for the platinum compounds which were prepared in saline (Quality Biological, Gaithersburg, MD, cat. 114-055-101), at 800-fold the tested concentration and stored at -70 degrees C prior to their use. All drugs and investigational agents were tested over a range starting from a high concentration at or near the clinical Cmax and decreasing in half-log increments. If the clinical Cmax for an agent had not been determined, the highest concentration tested was 10 microM (Table 1).
Cell Culture. All cells were maintained in an incubator at 37 degrees C and 5% CO2 with 95% humidity. The PDC lines were cultured according to standard operating procedures established by the NCI PDMR (https://pdmr.cancer.gov). Briefly, all PDCs were thawed and cultured in Matrigel-coated flasks prepared with a working solution of 1X Ham's F-12 nutrient mix, without supplementation (Invitrogen, Waltham, MA, cat. 11765054), 100 U/mL penicillin-streptomycin (Invitrogen, cat. 15140122), and 2.5% Matrigel (Corning Inc., Corning, NY, cat. 354248) for the first three passages. All PDCs were cultured in complete DMEM/F-12 media containing advanced DMEM/F-12 (Invitrogen, cat. 12634028), 4.9% defined fetal bovine serum, heat inactivated (HyClone Laboratories Inc., Logan, UT, cat. SH30070.03HI), 389 ng/mL hydrocortisone (Sigma-Aldrich, cat. H4001), 9.7 ng/mL human EGF recombinant protein (Invitrogen, cat. PHG0313), 23.4 microg/mL adenine (Sigma-Aldrich, cat. A2786), 97.3 U/mL penicillin-streptomycin (Invitrogen, cat. 15140122), 1.9 mM L-glutamine (Invitrogen, cat. 25030081), and 9.7 microM Y-27632 dihydrochloride (Tocris Bioscience, Bristol, United Kingdom, cat. 1254). The PDCs were cultured in complete DMEM/F12 media without 10 microM Y-27632 dihydrochloride for at least two passages prior to the screen. The established cell lines NCI-H1341 and […] were cultured in DMEM/F-12, HEPES (Invitrogen, cat. 11330032), 5% defined fetal bovine serum (HyClone Laboratories Inc., cat. SH30070.03), ITS premix universal culture supplement [insulin (5 microg/mL), transferrin (5 microg/mL), and selenious acid (5 ng/mL)] […]

[1] = curve of first compound, second compound 0.1 µM
[2] = curve of first compound, second compound 0.316 µM
[3] = curve of first compound, second compound 1 µM
[4] = curve of first compound, second compound 3.16 µM
[5] = curve of first compound, second compound 10 µM
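Note: exposure lasted 7 days after dosing on day 3 of spheroid growth.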

Compound: CC(C)CC(NC(=O)C(Cc1ccccc1)NC(=O)c1cnccn1)B(O)O (configuration not stated) + Cc1ccccc1N=Nc1ccc(NC(=O)c2ccnn2C)c(C)c1
IC50 [1]: 7.48 nM
IC50 [2]: 7.89 nM
IC50 [3]: 7.56 nM
IC50 [4]: 7.93 nM
IC50 [5]: 9.89 nM
viability, T/C (second compound 0.1 µM, first compound 0.000949 µM): 85.9%
viability, T/C (second compound 0.1 µM, first compound 0.003 µM): 97.5%
viability, T/C (second compound 0.1 µM, first compound 0.00949 µM): 39.1%
viability, T/C (second compound 0.1 µM, first compound 0.03 µM): 0.08%
viability, T/C (second compound 0.1 µM, first compound 0.0949 µM): 0.03%
viability, T/C (second compound 0.1 µM, first compound 0.3 µM): 0.11%
viability, T/C (second compound 0.316 µM, first compound 0.000949 µM): 90.5%
viability, T/C (second compound 0.316 µM, first compound 0.003 µM): 92.7%
viability, T/C (second compound 0.316 µM, first compound 0.00949 µM): 42.1%
viability, T/C (second compound 0.316 µM, first compound 0.03 µM): 0.06%
viability, T/C (second compound 0.316 µM, first compound 0.0949 µM): 0.05%
viability, T/C (second compound 0.316 µM, first compound 0.3 µM): 0.11%
viability, T/C (second compound 1 µM, first compound 0.000949 µM): 84.8%
viability, T/C (second compound 1 µM, first compound 0.003 µM): 89.4%
viability, T/C (second compound 1 µM, first compound 0.00949 µM): 40.9%
viability, T/C (second compound 1 µM, first compound 0.03 µM): 0.08%
viability, T/C (second compound 1 µM, first compound 0.0949 µM): 0.03%
viability, T/C (second compound 1 µM, first compound 0.3 µM): 0.1%
viability, T/C (second compound 3.16 µM, first compound 0.000949 µM): 79.4%
viability, T/C (second compound 3.16 µM, first compound 0.003 µM): 88.2%
viability, T/C (second compound 3.16 µM, first compound 0.00949 µM): 43.8%
viability, T/C (second compound 3.16 µM, first compound 0.03 µM): 0.11%
viability, T/C (second compound 3.16 µM, first compound 0.0949 µM): 2.06%
viability, T/C (second compound 3.16 µM, first compound 0.3 µM): 0.76%
viability, T/C (second compound 10 µM, first compound 0.000949 µM): 78%
viability, T/C (second compound 10 µM, first compound 0.003 µM): 80.8%
viability, T/C (second compound 10 µM, first compound 0.00949 µM): 51.9%
viability, T/C (second compound 10 µM, first compound 0.03 µM): 0.17%
viability, T/C (second compound 10 µM, first compound 0.0949 µM): 0.62%
viability, T/C (second compound 10 µM, first compound 0.3 µM): 0.21%

Compound: Nc1ccn(C2OC(CO)C(O)C2(F)F)c(=O)n1 (configuration not stated)
viability, T/C (compound 0.0316 µM): 28.9% and 105% and 26.2%
viability, T/C (compound 0.1 µM): 28.2% and 135% and 27.1%
viability, T/C (compound 0.316 µM): 32% and 64% and 25.9%
viability, T/C (compound 1 µM): 37% and 80.2% and 30.9%
viability, T/C (compound 3.16 µM): 40.3% and 118% and 35.9%
viability, T/C (compound 10 µM): 37.1% and 79.3% and 35.7%

Compound: Cc1cncc(-c2nc(NCCc3c[nH]c4ccccc34)c3ncn(C(C)C)c3n2)c1
viability, T/C (compound 0.1 µM): 88.2% [middle of 19 runs]
viability, T/C (compound 1 µM): 95.8% [middle of 20 runs]
viability, T/C (compound 10 µM): 51.4% [middle of 21 runs]

Second part, led by results:

IC50 (curve of compound): 7230 nM and > 10000 nM and 6070 nM
Compound: CC1(C)CCC(CN2CCN(c3ccc(C(=O)NS(=O)(=O)c4ccc(NCC5CCOCC5)c([N+](=O)[O-])c4)c(Oc4cnc5[nH]ccc5c4)c3)CC2)=C(c2ccc(Cl)cc2)C1
viability, T/C (compound 0.0316 µM): 97.3% and 96.7% and 85.8%
viability, T/C (compound 0.1 µM): 105% and 106% and 130%
viability, T/C (compound 0.316 µM): 101% and 98.7% and 110%
viability, T/C (compound 1 µM): 101% and 98.4% and 92.5%
viability, T/C (compound 3.16 µM): 99.6% and 105% and 72.3%
viability, T/C (compound 10 µM): 30.6% and 64.7% and 33.8%

IC50 [1]: > 10000 nM
IC50 [2]: > 10000 nM
IC50 [3]: > 10000 nM
IC50 [4]: > 10000 nM
IC50 [5]: > 10000 nM
Compound: CC1(C)CCC(CN2CCN(c3ccc(C(=O)NS(=O)(=O)c4ccc(NCC5CCOCC5)c([N+](=O)[O-])c4)c(Oc4cnc5[nH]ccc5c4)c3)CC2)=C(c2ccc(Cl)cc2)C1 + Cc1ccccc1N=Nc1ccc(NC(=O)c2ccnn2C)c(C)c1
viability, T/C (second compound 0.1 µM, first compound 0.0316 µM): 97.5%
viability, T/C (second compound 0.1 µM, first compound 0.1 µM): 90.6%
viability, T/C (second compound 0.1 µM, first compound 0.316 µM): 97%
viability, T/C (second compound 0.1 µM, first compound 1 µM): 99.9%
viability, T/C (second compound 0.1 µM, first compound 3.16 µM): 88.5%
viability, T/C (second compound 0.1 µM, first compound 10 µM): 61.4%
viability, T/C (second compound 0.316 µM, first compound 0.0316 µM): 95.5%
viability, T/C (second compound 0.316 µM, first compound 0.1 µM): 85.9%
viability, T/C (second compound 0.316 µM, first compound 0.316 µM): 88.9%
viability, T/C (second compound 0.316 µM, first compound 1 µM): 85.3%
viability, T/C (second compound 0.316 µM, first compound 3.16 µM): 83.9%
viability, T/C (second compound 0.316 µM, first compound 10 µM): 54.9%
viability, T/C (second compound 1 µM, first compound 0.0316 µM): 97.8%
viability, T/C (second compound 1 µM, first compound 0.1 µM): 85.4%
viability, T/C (second compound 1 µM, first compound 0.316 µM): 82.5%
viability, T/C (second compound 1 µM, first compound 1 µM): 80.2%
viability, T/C (second compound 1 µM, first compound 3.16 µM): 79.7%
viability, T/C (second compound 1 µM, first compound 10 µM): 67.1%
viability, T/C (second compound 3.16 µM, first compound 0.0316 µM): 85.7%
viability, T/C (second compound 3.16 µM, first compound 0.1 µM): 82.6%
viability, T/C (second compound 3.16 µM, first compound 0.316 µM): 87.4%
viability, T/C (second compound 3.16 µM, first compound 1 µM): 84.8%
viability, T/C (second compound 3.16 µM, first compound 3.16 µM): 76.5%
viability, T/C (second compound 3.16 µM, first compound 10 µM): 57%
viability, T/C (second compound 10 µM, first compound 0.0316 µM): 81.9%
viability, T/C (second compound 10 µM, first compound 0.1 µM): 85.1%
viability, T/C (second compound 10 µM, first compound 0.316 µM): 82%
viability, T/C (second compound 10 µM, first compound 1 µM): 77%
viability, T/C (second compound 10 µM, first compound 3.16 µM): 74%
viability, T/C (second compound 10 µM, first compound 10 µM): 54.7%

IC50 (curve of compound): 7.45 nM and 7.16 nM and 1.43 nM
Compound: CC(C)CC(NC(=O)C(Cc1ccccc1)NC(=O)c1cnccn1)B(O)O (configuration not stated)
viability, T/C (compound 0.000949 µM): 97.1% and 98.4% and 72.1%
viability, T/C (compound 0.003 µM): 105% and 94.3% and 10.1%
viability, T/C (compound 0.03 µM): 0.36% and 0.18% and 1.33%
viability, T/C (compound 0.0949 µM): 0.25% and 0.13% and 2.71%
viability, T/C (compound 0.3 µM): 0.36% and 0.19% and 3.19%
